Holding throughout (details): 72 h
The subject of test [1] is CAL-51. The method, then:
(§1)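 Drug sensitivity and resistance testing (DSRT) of breast cancer cell lines in 384-well plates, 5 concentrations in 10-fold dilutions over a compound-specific 10,000-fold range. After 72 h, cytotoxicity was read by CellTox Green fluorescence and viability by CellTiter-Glo luminescence (multiplexed), normalised to DMSO and benzethonium chloride controls. EC50 is the inflection point of the fitted dose-response curve (bottom asymptote free, so it can be relative for partial curves) and is censored at the highest tested concentration. Rows with DSS 0 (no meaningful response) were excluded.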

For test [2], the system named is CAL-148. On the procedure: as §1
The subject of test [3] is BT-549. On the procedure:
as §1

For test [4], the system named is HDQ-P1. The method, then:
as §1

Test [5] relates to BT-474. The method, then:
as §1

For test [6], the system named is Hs578T. On the procedure:
as §1

The test system of test [7] is HCC1937. On the procedure:
as §1

In test [8] the test system is MDA-MB-231. The method, then:
as §1

In test [9] the test system is SK-BR-3. In short, it runs like this: (§2)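 EC50 is the value from a fitted percent-inhibition dose-response curve, censored at the highest concentration, and rows with zero drug sensitivity score were not kept. The underlying assay seeded breast cancer cell lines in 20 µl onto 384-well plates pre-loaded with compound in 5 µl medium for 72 h. Viability was then read by CellTiter-Blue fluorescence at 560/590 nm after 2 h at 37 °C, with each plate normalised to vehicle and a positive kill control.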

In test [10] the test system is BT-474. In a few lines:
as §2
The source holds these as a separate data set.

Test [11] has as its system MDA-MB-468. In a few lines:
as §2

Test [12] concerns Hs578T. In short, it runs like this: as §2
This is another data set of the same source.

Test [13] relates to HCC1937. In short, it runs like this:
as §2
This is another data set of the same source.

For test [14], the system named is MDA-MB-231. In short, it runs like this:
as §2
This is another data set of the same source.

Test [15] deals with CAL-148. In a few lines:
(§3)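 Per-plate normalisation used 0.1 % DMSO and a positive kill control. Breast cancer cell lines (20 µl suspension) were seeded into 384-well plates containing compound at 5 concentrations in 10-fold steps across a compound-specific 10,000-fold range, incubated for 72 h, and read first for CellTox Green fluorescence (485/520 nm), then for CellTiter-Glo luminescence. EC50 was fitted from the dose-response curves and censored at the top concentration.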
This is another data set of the same source.

The test system of test [16] is HDQ-P1. In short, it runs like this: as §3
The source holds these as a separate data set.

For test [17], the system named is MDA-MB-436. The method, then: as §1
The subject of test [18] is MDA-MB-453. On the procedure: as §1
Test [19] has as its system CAL-120. The method, then: as §1
The subject of test [20] is MDA-MB-468. On the procedure: as §1
This is another data set of the same source.

Test [21] relates to MFM-223. On the procedure:
as §1

In test [22] the test system is HCC1143. On the procedure: as §1
Test [23] has as its system MCF-10A. The method, then:
as §1

This note sets out measurements from the supplement of paper PMC4862054.

Some results are limits rather than exact numbers.

For `COc1ccc(-c2cc3c(C)nc(N)nc3n([C@H]3CC[C@H](OCCO)CC3)c2=O)cn1`, the “EC50, CellTox Green” value in [1] is 783 nM; in test [2], 787 nM; in test [3] it was 3870 nM; in [4], 1990 nM; in [5], 983 nM; in test [6], 6070 nM. Also, the “EC50, CellTox Green” value was found to be 5410 nM in test [7] and 575 nM in test [8]. Besides, the “EC50, CellTiter-Blue viability” value in test [9] is 40.5 nM; in [10] it was 193 nM; in test [11], 268 nM; in test [12], 158 nM; in [13] it was 63 nM; in test [14], 144 nM. Besides, the “EC50, CellTiter-Glo” value in test [15] was determined as 294 nM; in test [16], 190 nM.

In the case of `Cn1cc(CNCC2CCN(c3ncc(C(=O)NO)cn3)CC2)c2ccccc21`, the “EC50, CellTiter-Blue viability” value in test [9] was determined as 5.33 nM; in [10], 17 nM; in test [11], 38.9 nM; in test [12], 65.1 nM; in test [13] it was 33.6 nM; in test [14] it was 47.8 nM.

On to `O=C(NC[C@H](O)CO)c1ccncc1Nc1ccc(I)cc1F`, for which, in [14], the “EC50, CellTiter-Blue viability” value amounted to 19.7 nM.

`CC/C(=C(\c1ccc(O)cc1)c1ccc(OCCN(C)C)cc1)c1ccccc1` [4-hydroxytamoxifen]: the “EC50, CellTox Green” value worked out at 2800 nM in [17]; 9550 nM in test [18]; 9170 nM in test [19]; 92.3 nM in [20]; 1930 nM in test [7]; 4260 nM in test [8].

Turning to `O=C(Nc1c[nH]nc1-c1nc2ccc(CN3CCOCC3)cc2[nH]1)NC1CC1` [AT9283], the “EC50, CellTox Green” value was 0.88 nM in test [1], 192 nM in [19], 0.51 nM in [20] and 24.6 nM in test [8]. Besides, the “EC50, CellTiter-Blue viability” value is 267 nM in test [9]; 1630 nM in test [10]; 841 nM in [11]; 337 nM in [12]; 257 nM in [13]; 503 nM in test [14]. In addition, the “EC50, CellTiter-Glo” value in [16] turned out to be 303 nM.

For the molecule `COc1cc(CCc2cc(NC(=O)c3ccc(N4CC(C)NC(C)C4)cc3)n[nH]2)cc(OC)c1` (centres undefined) [AZD4547], in [19], the “EC50, CellTox Green” value was more than 1000 nM.

Regarding `CC(=O)OC[C@H]1O[C@@H]([S-])[C@H](OC(C)=O)[C@@H](OC(C)=O)[C@@H]1OC(C)=O.CCP(CC)CC.[Au+]` [Auranofin], the “EC50, CellTox Green” value is 186 nM in [1]; 958 nM in [21]; 2060 nM in test [2]; 712 nM in test [3]; more than 2500 nM in test [22]; 1590 nM in test [18]. Further, the “EC50, CellTox Green” value is more than 2500 nM in test [19]; 694 nM in test [4]; 646 nM in [5]; 412 nM in [20]; 926 nM in test [7]; 1330 nM in [8]. The “EC50, CellTiter-Glo” value stood at 2190 nM in [15] and 1120 nM in [16].

For the molecule `CCC/C=C/C=C/C(=O)O[C@H]1/C(=C/C(=O)OC)C[C@H]2C[C@H]([C@@H](C)O)OC(=O)C[C@H](O)C[C@@H]3C[C@H](OC(C)=O)C(C)(C)[C@](O)(C[C@@H]4C/C(=C/C(=O)OC)C[C@H](/C=C/C(C)(C)[C@]1(O)O2)O4)O3` [Bryostatin 1], in test [4], the “EC50, CellTox Green” value was found to be 0.9 nM. Moreover, in [9], the “EC50, CellTiter-Blue viability” value came out at 155 nM.

For `CO[C@@H](C(=O)N1Cc2[nH]nc(NC(=O)c3ccc(N4CCN(C)CC4)cc3)c2C1)c1ccccc1` [Danusertib], the “EC50, CellTox Green” value in test [1] was 348 nM; in test [17], 216 nM; in [23] it was more than 10000 nM; in [3], more than 10000 nM; in test [19] it was 5630 nM; in test [4], 6850 nM. Further, the “EC50, CellTox Green” value in [20] amounted to 10.2 nM; in test [6] it was 477 nM. Moreover, the “EC50, CellTiter-Blue viability” value in [11] was 71.9 nM; in test [12] it was 1040 nM; in test [13], 344 nM; in test [14], 1180 nM. For the same molecule, the “EC50, CellTiter-Glo” value is 448 nM in [15] and 7430 nM in test [16].

Turning to `Cc1nc(Nc2ncc(C(=O)Nc3c(C)cccc3Cl)s2)cc(N2CCN(CCO)CC2)n1` [Dasatinib], the “EC50, CellTox Green” value in test [1] was determined as 10.3 nM; in test [23] it was 599 nM; in test [3], 162 nM; in test [6], 277 nM; in [8] it was 515 nM. The “EC50, CellTiter-Blue viability” value turned out to be 49.7 nM in test [12] and 16.8 nM in test [14]. The “EC50, CellTiter-Glo” value in test [16] is 18.3 nM.

For the molecule `CS(=O)(=O)N1CCN(Cc2cc3nc(-c4cccc5[nH]ncc45)nc(N4CCOCC4)c3s2)CC1` [GDC-0941], the “EC50, CellTiter-Blue viability” value in test [9] came out at 158 nM; in test [10], 770 nM; in test [11] it was 1650 nM; in [12], 1460 nM; in test [13], 958 nM; in [14], 2240 nM.

As to `Cc1c(CN2CCN(C(=O)[C@H](C)O)CC2)sc2c(N3CCOCC3)nc(-c3cnc(N)nc3)nc12` [GDC-0980], the “EC50, CellTox Green” value worked out at 2320 nM in [1]; 1000 nM in test [21]; 820 nM in test [2]; 1460 nM in test [22]; 8340 nM in test [4]; 1390 nM in test [5]. The “EC50, CellTiter-Blue viability” value in test [9] is 81.8 nM; in test [10], 318 nM; in test [11], 704 nM; in [12], 257 nM; in [13] it was 214 nM; in test [14] it was 90.4 nM. The “EC50, CellTiter-Glo” value in test [15] came to 701 nM; in [16], 452 nM.
